Where “and” joins values, the source holds several entries; their conditions need not be identical. Identical values can stand only once.

This experiment has as its system methicillin-resistant Staphylococcus aureus (MRSA), Staphylococcus aureus ATCC BAA 1768. The experiment can be described thus: partial thickness wound model, microbial load in tissue biopsy (Example 4). Format: in vivo, Yorkshire pig. As to conditions: for TISSUE BIOPSY (CFU/mm^2) 24 hr. after treatment 2: individual wounds. Here is the method: Bacteria strains were obtained from ATCC (Manassas, VA). Bacteria were propagated from glycerol stock store at −80° C. A stab of the glycerol stock was used to inoculate 5 mL of trypticase soy broth. The cultures were incubated overnight at 37° C. with shaking at 250 rpm. The following day, a portion of overnight culture was used to prepare a streak plate onto an Oxacillin screen plate which was incubated overnight at 37° C. and single colony isolates of freshly plated bacteria were used to prepare bacterial inoculum. The morning of wounding an infection, a portion of overnight culture was used to inoculate 50 mL of trypticase soy broth and the newly inoculated media was incubated at 37° C. with shaking at 250 rpm until log phase growth was reached. The bacteria were pelleted by centrifugation at 4,000 rpm at 4° C. for 10 minutes in a Sorval tabletop centrifuge. The culture supernatant was discarded, and the bacterial pellets were suspended in a volume of sterile PBS to yield a concentration of 2×10^7 CFU/mL.
Tissue samples were obtained using an 8 mm biopsy punch. The biopsy punch was placed into a homogenization tube containing 1 mL of sterile PBS and stainless steel homogenization beads and the tissues were homogenized in a Reich MM300 mixer mill homogenizer. Serial 10-fold dilutions of the tissue homogenates were prepared in sterile PBS and 100 microliters of select dilutions for each wound were plated onto agar plates. The plates were incubated at 35-37° C. and the colonies were enumerated manually. Microbial loads were normalized at CFU/mm^2 of tissue surface area per punch.
This study evaluated the ability of porfimer sodium to reduce/eliminate microbial colonization and biofilm from surgical sites in a partial thickness would healing model. The study was conducted in a single female Yorkshire pig over the course of five days. A dermatome was used to create 20 partial thickness wounds. Sixteen of the wounds were infected with methicillin-resistant Staphylococcus aureus (MRSA), and four were designated as uninfected controls. The wounds were bandaged and the bacterial biofilm allowed to develop for 48 hours.
Designated infected wounds were subjected to two courses of treatment with the test article at a periodicity of 24 hours. […]
Treatments consisted of application of the test article followed by photoactivation with one or two intensities of light, 150 J/cm^2 or 200 J/cm^2 (Table 3). Wounds were evaluated for microbial load prior to each course of treatment, immediately following the final treatment and 24 hours following the final treatment. […]

On to porfimer sodium, for which the “Mean microbial load, Tissue” value worked out at 8.13E+03 CFU/mm^2 (Group 3 (150 J/cm^2), N 6) and 2.64E+03 CFU/mm^2 (Group 4 (200 J/cm^2), N 3, without wounds L6, R5, R9). Besides, the “TISSUE BIOPSY (CFU/mm^2) 24 hr. after treatment 2” value runs as follows: (Group 3 = 150 J/cm2 treatment) 4.28E+03 CFU/mm^2 and 1.57E+04 CFU/mm^2 and 2.78E+03 CFU/mm^2 and 4.73E+03 CFU/mm^2 and 1.05E+04 CFU/mm^2; (Group 4 = 200 J/cm2 treatment) 6.27E+03 CFU/mm^2 and 5.47E+02 CFU/mm^2 and 1.11E+03 CFU/mm^2 and 8.35E+03 CFU/mm^2 and 3.36E+03 CFU/mm^2.
